We go through five compounds from US8815935B2, “Inhibitors of protein prenyltransferases” (The Regents of the University of California, priority 2008, dated 2014).

One assay has as its system Jurkat cells. Nature of the assay: Jurkat cell growth inhibition. The class given is cell-based, human. Here is the method: In Table 4 in cell GI50 values for the growth inhibition of Jurkat cells are reported. The GI50 value is the concentration of a test compound needed to produce 50% growth inhibition in the cell type listed. In Table 4 the isolated yield of each synthetic step for the synthesis of corresponding compounds are also reported.
(§1) Panc-1 cells (Pancreatic cancer cell line) and Jurkat cells (T-cell leukemia) were treated with 12.5 μM of P5-H6 or 12.5 μM of mP5-H6a for 72 hours. The cell number was counted as described in Example 5.
(§2) Cell viability was determined by Cell Counting Kit-8 (CCK-8, Dojindo, Kumamoto, Japan) as described previously (31). Cell viability was calculated relative to the DMSO control. Cell cycle profile was analyzed by flow cytometry as described previously (32).

A further assay addresses T1, GGTase-I (Rattus norvegicus, UniProt P53610+Q04631).
T1 construct: purchased JENA BIOSCIENCE
Nature of the assay: In vitro GGTase-I enzyme assay (IC50, kinetics). Format: biochemical. As to the method:
The GGTase-I assay was carried out using RhoA as a substrate protein, GGTase-I (JENA Bioscience) and [3H]geranylgeranyl pyrophosphate. Incubation was for 30 min at 37° C. GGTase-II (or RabGGTase) assay was carried out using YPTI as a substrate protein, GGTase-II (Calbiochem, San Diego, Calif.) plus REP1 (Calbiochem) and [3H]geranylgeranyl pyrophosphate. Incubation was for 30 min at 37° C. FIGS. 20D-20F show the three dimensional structure of GGTase I (D), FTsse (E) and GGTase II (F) which can be obtained from X-ray diffraction studies of protein crystals.
(§3) GGTase-I and FTase activities were determined by following the incorporation of radiolabeled isoprenoid [^3H]-geranylgeranyl or [^3H]-farnesyl into substrate proteins. FTase or GGTase-I (50 nM) were used to initiate reactions containing 0.4 μM of [^3H]-FPP or 0.5 μM of [^3H]-GGPP and 2 μM of MBP-tagged substrates (K-Ras4B for FTase; RhoA for GGTase-I) in 20 μl of buffer {50 mM Tris-HCl (pH 7.5), 10 mM MgCl2, […] and 5 mM DTT}. Inhibitors were added at the indicated concentrations. The final DMSO concentration was 2.5% for all samples.
(§4) Reactions were carried out for 10 min at 30° C. The reaction mixture was spotted onto a filter paper, treated with 10% trichloroacetic acid (TCA) followed by ethanol and acetone washing. The filter was counted using a scintillation counter. Kinetic assays in which the GGPP concentration was varied employed fixed concentrations of GGTase-I and RhoA, and reactions were carried out for 5 min. Similarly, fixed concentrations of GGTase-I and GGPP were used when the amount of RhoA was varied.

The test system of the next assay is K562 cells. Nature of the assay: K562 cell growth inhibition. The class given is cell-based, human. As to the method:
K562 cells are a cell line of human erythroleukemia cells. The K562 cells were treated with P3-E5, P5-H6 or GGTI-298 (a known GGTI compound illustrated in FIG. 27) for 72 hours and then cell number was counted using cell counting kit-8 (Dojindo, Gaithersburg, Md.). Cell viability relative to the DMSO control and the known GGTI compound is plotted in FIG. 23.
as §2

The test system of another assay is MCF10a. Nature of the assay: MCF10a cell growth inhibition. The class given is cell-based. The conditions noted are these: Homo sapiens, MCF-10A. The text has this: (§5) In FIG. 9-24 in vitro IC50 values for the GGTase I activity are reported. In Tables 7-15 in cell GI50 values for the growth inhibition of a variety of cancer cell lines (e.g., Jurkat, K562, MDA-MB-231, BT474, MCF7, MiaPaCa2, Aspc-1, Panc-1, Capan-2, CFpac-1, and MCF10a) are reported.

The subject of a further assay is MCF7. Nature of the assay: MCF7 cell growth inhibition. The class given is cell-based, human. The note with it: Homo sapiens. As to the method:
as §5, §2

A further assay deals with T2, FTase (Rattus norvegicus, UniProt Q02293+Q04631).
T2 construct: purchased JENA BIOSCIENCE
Nature of the assay: In vitro FTase assay (K-Ras4B substrate, [3H]FPP). Format: biochemical. The conditions noted are these: P3-D9, P3-E5: concentration increased to 100 (unit not given).
Text: To further characterize the pilot library, inhibitors of protein farnesyltransferase were identified. This was accomplished by using K-Ras4B as a substrate protein, tritiated farnesylpyrophosphate ([^3H]FPP) and protein farnesyltransferase. See Finegold, A. A., Johnson, D. I., Farnsworth, C. C., Gelb, M. H., Judd, S. R., Glomset, J. A. and Tamanoi, F. (1991) Protein geranylgeranyltransferase of Saccharomyces cerevisiae is specific for Cys-Xaa-Xaa-Leu motif and requires the CDC43 gene product but not the DPR1 gene product. Proc. Natl. Acad. Sci. USA 88, 4448-4452. […] On the other hand, the structure of the compounds P1-F11, P2-B7 and P2-E9 resemble those of GGTIs. The FTI P1-F11 resembles the GGTI P1-F10, while the FTI P2-B7 resembles the GGTI P2-C10. The FTI P2-E9 is similar to the GGTI P2-G3. Similarity of some GGTI and FTI compounds may point to common structural features between the two closely related enzymes. As described before, FTase and GGTase I have similar three-dimensional structures and a shared alpha subunit. On the other hand, FTase specific inhibitors may recognize a region(s) that is different between the two enzymes.
Examples 2-8 illustrate assays of bioactivity. These methods are applicable to the compounds of the present invention having the particular linkers and scaffolds described herein, to determine their activity. […] Varying concentrations of the two compounds were added to each enzyme reaction. The FTase (protein farnesyltransferase) assay was carried out using K-Ras4B as a substrate protein, FTase (JENA Bioscience, San Diego, Calif.) and [3H]farnesyl pyrophosphate. Incubation was for 30 min at 37° C.
as §3, §4

The next assay deals with MiaPaCa2. Nature of the assay: MiaPaCa2 cell growth inhibition. The note with it: no unit printed there. Format: cell-based, human. Here is the method: as §5, §2
Another assay deals with Panc-1. Nature of the assay: Panc-1 cell growth inhibition. Format: cell-based, human. The note with it: no unit printed there. Here is the method: as §5, §1, §2
A further assay concerns BT474. Nature of the assay: BT474 cell growth inhibition. The class given is cell-based, human. The conditions noted are these: no unit printed there. Here is the method:
as §5, §2

Another assay has as its system MDA-MB-231. Nature of the assay: MDA-MB-231 cell growth inhibition. Format: cell-based, human. The note with it: Tables 8-15, no unit printed there. As to the method:
as §5, §2

A further assay relates to Capan-2. Nature of the assay: Capan-2 cell growth inhibition. Format: cell-based, human. The note with it: no unit printed there. Here is the method: as §5, §2
A further assay relates to CFpac-1. Nature of the assay: CFpac-1 cell growth inhibition. The class given is cell-based, human. The conditions noted are these: no unit printed there. As to the method: as §5, §2
The subject of a further assay is Aspc-1. Nature of the assay: Aspc-1 cell growth inhibition. Format: cell-based, human. The note with it: no unit printed there. Here is the method:
as §5, §2

[1] abbreviates: Homo sapiens, Jurkat, Tables 4, 6, 7, read-out: Jurkat cell GI50.
The mark [2] stands for this setting: Tables 3, 5, 7, read-out: In vitro (enzyme assay) IC50, GGTase I.
[3] abbreviates: Homo sapiens, Jurkat, Tables 8-15, no unit printed there, read-out: Jurkat GI50.
Setting [4] is: Tables 8-15, no unit printed there (Table 7 head: μM unless otherwise specified), read-out: In vitro (GGTase I IC50).
[5] abbreviates: Homo sapiens, K562, Tables 8-15, no unit printed there.

The structures appear in SMILES notation. Like-named read-outs stand apart in the source and are kept apart here. Some results are limits rather than exact numbers.

A word on the GI50: it is the concentration at which growth is held to half of that of the control. In general, IC50 refers to the concentration needed to halve the response being measured. With `Cc1ccccc1S(=O)(=O)N1[C@@H](c2ccc(Cl)cc2)C(C(=O)NO)=C[C@H]1C(C)(C)C`, the GI50 with Jurkat cells (setting [1]) was found to be 4.02 µM; with K562 cells (Homo sapiens, K562, Table 7), 10.3 µM; in the assay with MCF10a (Table 7), 11.4 µM; in the assay with MCF7 (MCF7, Table 7) it was 2.52 µM. Further, the concentration for half-maximal inhibition (IC50) on GGTase-I (setting [2]) was determined as 1.3 µM.

For the compound `COC(=O)[C@H](Cc1ccccc1)NC(=O)COCC1=C[C@@H](C(C)(C)C)N(S(=O)(=O)c2ccccc2C)[C@H]1c1ccc(Cl)cc1`, the 50% growth inhibitory concentration (GI50) in the assay on Jurkat cells (setting [3]) was determined as 3.51 µM; with K562 cells (setting [5]), 6.01 µM; in the assay with MCF10a (Tables 8-15, no unit printed there) it was 20 µM; in the assay on MCF7 (MCF7, Tables 8-15, no unit printed there), 6.78 µM. The half-inhibitory concentration (IC50) on GGTase-I (setting [4]) came to 2.1 µM.

Take `Cn1cncc1CN1C[C@@H](Cc2ccccc2)N(S(=O)(=O)c2cccs2)Cc2cc(C#N)ccc21` [BMS225975, reference compound]: the “inhibition of FTase activity (FIG. 16)” value on FTase is recorded as “inhibits FTase”. In addition, the “inhibition of GGTase I (FIG. 16 controls)” value on GGTase-I was “does not inhibit GGTase I”.

Take `CC(C)(C)[C@@H]1C=C(C(=O)N[C@@H](Cc2ccccc2)C(N)=O)[C@H](c2ccc(Br)cc2)N1S(=O)(=O)c1ccccc1Cl` [P61-B08]: the GI50 is 4.74 µM in the assay on Jurkat cells (setting [1]); 4.74 µM in the assay on Jurkat cells (setting [3]); 6.15 µM in the assay on MiaPaCa2 (Homo sapiens, MIA PaCa-2, Tables 8-15); 9.05 µM in the assay with Panc-1 (Homo sapiens, PANC-1, Tables 8-15); 9.08 µM in the assay on BT474 (Homo sapiens, BT-474, Tables 8-15); 4.43 µM with MDA-MB-231 (listed as P61B8). For the same compound, the GI50 in the assay with Capan-2 (Homo sapiens, Capan-2, Tables 8-15) is 8.32 µM; with CFpac-1 (Homo sapiens, CFPAC-1, Tables 8-15) it was 6.16 µM; with K562 cells (setting [5]), 5.21 µM; with Aspc-1 (Homo sapiens, ASPC1, Tables 8-15), 12.2 µM. Also, the IC50 at GGTase-I (setting [2]) is 16 µM; at GGTase-I (setting [4]), 6 µM.

Turning to `CC(C)(C)[C@@H]1C=C(C(=O)N[C@@H](Cc2ccccc2)C(N)=O)[C@H](c2ccc(Br)cc2)N1S(=O)(=O)c1ccccc1Cl` [P61-B09], the GI50 in the assay on Jurkat cells (Tables 4, 6, 7, read-out: Jurkat cell GI50) amounted to 8.75 µM; in the assay with Jurkat cells (Tables 8-15, no unit printed there, listed as P61B9, read-out: Jurkat GI50), 8.75 µM; in the assay on MiaPaCa2 (Tables 8-15, listed as P61B9), 12.1 µM; in the assay with Panc-1 (Tables 8-15, listed as P61B9), 12 µM; with BT474 (Tables 8-15, listed as P61B9), 9.9 µM; in the assay on MDA-MB-231 (listed as P61B9) it was 11.3 µM. Moreover, the GI50 in the assay on Capan-2 (Tables 8-15, listed as P61B9) amounted to 10.7 µM; with CFpac-1 (Tables 8-15, listed as P61B9), 6.3 µM; with K562 cells (Tables 8-15, no unit printed there, listed as P61B9), 9.18 µM; in the assay on Aspc-1 (Tables 8-15, listed as P61B9), 16.8 µM. Further, the IC50 at GGTase-I (setting [2]) and on GGTase-I (setting [4]) was greater than 10 µM in each case.
